Results: publication PMC3549917, “Characterization of two antimicrobial peptides produced by a halotolerant Bacillus subtilis strain SK.DU.4 isolated from a rhizosphere soil sample” (AMB Express, 2013)
Where no end group is shown, it is not given here.

Experiments:
Experiment in all cases: Well diffusion assay, inhibition spectrum
Format in all cases: cell-based
L. monocytogenes MTCC839 = details: 100 μl of the lowest dilution inhibiting test strain, similar results in three individual experiments
Protocol: (§1) The bacteriocin activity was determined by well diffusion assay. The strain was grown for 24 h in 200 ml nutrient broth (NB, Himedia) using 500 ml flask and subsequently cells were removed by centrifugation (8000 rpm for 20 min, 4°C). The supernatant obtained was filtered by using 0.22 μm filter (Millipore), diluted by two fold and used to test the activity as mentioned earlier (Singh et al. [2012]). The antimicrobial peptide production was also tested by growing the strain in minimal medium. To examine the antimicrobial activity, S. aureus cells were processed for scanning electron micrograph (SEM) as described by earlier (Singh et al. [2012]). Growth curve was prepared to examine the bacteriocin production along with the growth of strain SK.DU4.
(§2) Although the antimicrobial peptides were produced in NB for large scale preparation, the influence of different carbon and nitrogen sources on peptides production was tested using minimal medium. […] The optimum pH for the production of antimicrobial peptides was 7.2 and there was no significant change in pH was observed during the production of antimicrobial peptides. The bacteriocin-like peptide was extracted from CFB by hydrophobic interaction chromatography using Diaion HP-20 beads and purified by a combination of chromatography techniques as described previously (Singh et al. [2012]). Subsequently, the purified peptide was tested for antimicrobial activity against an array of Gram-positive and Gram-negative bacteria, yeasts and fungi strains using well diffusion assays.

S. mutans MTCC497 = details: lipopeptide combined with bacteriocin-like peptide
Protocol: as §1, §2

M. luteus MTCC106 = details: 100 μl of the lowest dilution inhibiting test strain, similar results in three individual experiments
Protocol: as §1, §2

B. subtilis MTCC121 = details: Polymyxin B at 300 U
Protocol: as §1, §2

“DYNQPNS (also: lariat or depsi (positions not given here)) [Lipopeptide, cyclic iturin-like lipopeptide (m/z 1056 Da), β-hydroxy fatty acid linked to Ser of heptapeptide, from strain SK.DU.4]” was tested. Which inhibition zone (L. monocytogenes MTCC839) did it give?
The inhibition zone was 11 mm.

And the “growth inhibition in combination with bacteriocin-like peptide” value (S. mutans MTCC497)?
The value was “inhibited the growth”.

What about the inhibition zone (M. luteus MTCC106) of the same substance?
The inhibition zone was 11 mm.

What about the Inhibition activity (B. subtilis MTCC121) of the same substance?
The Inhibition activity was “inhibited growth”.
